The source made the active and inactive calls. No cut-off for these calls is given here.
Legend:
[1] = target: Cyclin-dependent kinase 6 (Homo sapiens) (UniProt Q00534); test: Inhibition of CDK6 (unknown origin) at 1 uM
[2] = target: Cyclin-dependent kinase 4 (Homo sapiens) (UniProt P11802); test: Inhibition of CDK4 (unknown origin) at 1 uM
BXPC-3 = test: Antiproliferative activity against human BxPC-3 cells assessed as inhibition of cell growth by MTT assay; type: functional, cell-based
CDK6/cyclin D1 = CDK6/cyclin D1 (Homo sapiens, UniProt Q00534); test: Inhibition of CDK6/cyclin D1 (unknown origin); type: protein-complex assay
CDK6/cyclin D1, sequence (P24385 whole entry): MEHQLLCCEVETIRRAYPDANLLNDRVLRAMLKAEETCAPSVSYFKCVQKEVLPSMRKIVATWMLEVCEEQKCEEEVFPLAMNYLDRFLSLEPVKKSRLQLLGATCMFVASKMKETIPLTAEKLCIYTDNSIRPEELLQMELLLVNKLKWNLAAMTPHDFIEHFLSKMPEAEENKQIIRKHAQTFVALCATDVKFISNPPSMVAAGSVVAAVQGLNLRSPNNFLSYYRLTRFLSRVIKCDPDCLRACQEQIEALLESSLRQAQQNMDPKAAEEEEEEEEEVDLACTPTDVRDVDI
CDK6/cyclin D1, sequence (Q00534 whole entry): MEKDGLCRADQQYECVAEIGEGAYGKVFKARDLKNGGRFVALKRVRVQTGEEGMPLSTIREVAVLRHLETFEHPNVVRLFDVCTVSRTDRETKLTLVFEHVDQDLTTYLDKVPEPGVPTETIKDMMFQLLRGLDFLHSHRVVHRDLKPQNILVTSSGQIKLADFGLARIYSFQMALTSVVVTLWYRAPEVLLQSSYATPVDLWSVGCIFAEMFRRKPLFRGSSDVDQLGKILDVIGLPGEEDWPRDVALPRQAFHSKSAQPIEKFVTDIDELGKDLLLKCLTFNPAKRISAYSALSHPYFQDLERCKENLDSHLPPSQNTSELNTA

[3] = target: Cyclin-dependent kinase 4/cyclin D1 (Homo sapiens, UniProt P11802); test: Inhibition of CDK4/cyclin D1 (unknown origin); type: protein-complex assay
Cyclin-dependent kinase 4/cyclin D1, sequence (P11802 whole entry): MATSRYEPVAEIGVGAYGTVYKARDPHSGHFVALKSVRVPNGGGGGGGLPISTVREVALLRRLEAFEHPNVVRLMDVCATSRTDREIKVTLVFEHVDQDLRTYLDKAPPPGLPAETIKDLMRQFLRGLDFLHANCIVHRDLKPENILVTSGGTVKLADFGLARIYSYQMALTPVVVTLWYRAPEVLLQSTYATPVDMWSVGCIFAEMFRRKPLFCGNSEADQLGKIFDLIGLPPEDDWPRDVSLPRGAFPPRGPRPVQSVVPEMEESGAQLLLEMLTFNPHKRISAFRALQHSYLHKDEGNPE
Cyclin-dependent kinase 4/cyclin D1, sequence (P24385 whole entry, further chain): as the sequence (P24385 whole entry) above

MIA PaCa-2 [4] = test: Antiproliferative activity against human MIA PaCa-2 cells assessed as inhibition of cell growth by MTT assay; type: functional, cell-based
MIA PaCa-2 [5] = test: Cell cycle arrest in human MIA PaCa-2 cells assessed as accumulation at G1 phase at 2.5 uM (reference value: 44.09 %); type: functional
MIA PaCa-2 [6] = test: Cell cycle arrest in human MIA PaCa-2 cells assessed as accumulation at G1 phase at 1.6 uM (reference value: 44.09 %); type: functional
MIA PaCa-2 [7] = test: Cell cycle arrest in human MIA PaCa-2 cells assessed as accumulation at G1 phase at 0.8 uM (reference value: 44.09 %); type: functional
MIA PaCa-2 [8] = test: Cell cycle arrest in human MIA PaCa-2 cells assessed as accumulation at G2 phase at 2.5 uM (reference value: 10.64 %); type: functional
MIA PaCa-2 [9] = test: Cell cycle arrest in human MIA PaCa-2 cells assessed as accumulation at G2 phase at 1.6 uM (reference value: 10.64 %); type: functional
MIA PaCa-2 [10] = test: Cell cycle arrest in human MIA PaCa-2 cells assessed as accumulation at G2 phase at 0.8 uM (reference value: 10.64 %); type: functional
MIA PaCa-2 [11] = test: Cell cycle arrest in human MIA PaCa-2 cells assessed as accumulation at S phase at 2.5 uM (reference value: 45.27 %); type: functional
MIA PaCa-2 [12] = test: Cell cycle arrest in human MIA PaCa-2 cells assessed as accumulation at S phase at 1.6 uM (reference value: 45.27 %); type: functional
MIA PaCa-2 [13] = test: Cell cycle arrest in human MIA PaCa-2 cells assessed as accumulation at S phase at 0.8 uM (reference value: 45.27 %); type: functional
[14] = Solubility of the compound at pH 7.4; type: physicochemical; conditions: buffer
[15] = Permeability of the compound at pH 7.4 by PAMPA; type: ADME; conditions: read-out: permeability
[16] = Permeability of the compound at pH 5.0 by PAMPA; type: ADME; conditions: read-out: permeability
[17] = Metabolic stability in rat liver microsomes assessed as half life; type: ADME, Microsome
[18] = Metabolic stability in human liver microsomes assessed as half life; type: ADME, Microsome

Cyclin-dependent kinase 4 (Homo sapiens), sequence (P11802 whole entry): as the sequence (P11802 whole entry) above
Cyclin-dependent kinase 6 (Homo sapiens), sequence (Q00534 whole entry): as the sequence (Q00534 whole entry) above

| Compound | IC50 (BXPC-3) [nM] | IC50 (CDK6/cyclin D1) [nM] | IC50 [3] [nM] | IC50 (MIA PaCa-2 [4]) [nM] | other results |
| --- | --- | --- | --- | --- | --- |
| O=C(Nc1ccccc1C(F)(F)F)c1cc2cnc(Nc3ccc(N4CCNCC4)cn3)nc2n1C1CCCC1 | 8040 | 666 | 60.3 | 3160 | inhibition [1]: Active; inhibition [2]: Active |
| CN(C)C(=O)c1cc2cnc(Nc3cccnc3)nc2n1C1CCCC1 |  |  | 315 | 26000 |  |
| O=C(Nc1ccccc1F)c1cc2cnc(Nc3ccc(N4CCNCC4)cn3)nc2n1C1CCCC1 | 8370 | 369 | 45.3 | 3670 | inhibition [1]: Active; inhibition [2]: Active |
| O=C(Nc1ccccc1)c1cc2cnc(N3CCN(c4ccc(Cl)cc4)CC3)nc2n1C1CCCC1 |  |  | > 100000 | > 200000 |  |
| COc1ccc(NC(=O)c2cc3cnc(Nc4ccc(N5CCNCC5)cn4)nc3n2C2CCCC2)c(OC)c1 | 3650 | 268 | 28.1 | 2230 |  |
| CC(=O)c1c(C)c2cnc(Nc3ccc(N4CCNCC4)cn3)nc2n(C2CCCC2)c1=O [PALBOCICLIB] |  |  |  | 10600 |  |
| COc1cccc(NC(=O)c2cc3cnc(Nc4ccc(N5CCNCC5)cn4)nc3n2C2CCCC2)c1 | 10500 | 169 | 53.4 | 2650 |  |
| CN(C)C(=O)c1cc2cnc(Nc3ccc(N4CCNCC4)cn3)nc2n1C1CCCC1 [RIBOCICLIB] | 68400 |  |  | 10700 | Activity (MIA PaCa-2 [5]): 77.2%; Activity (MIA PaCa-2 [6]): 72.41%; Activity (MIA PaCa-2 [7]): 66.97%; Activity (MIA PaCa-2 [8]): 4.09%; Activity (MIA PaCa-2 [9]): 5.47%; Activity (MIA PaCa-2 [10]): 5.5%; Activity (MIA PaCa-2 [11]): 18.72%; Activity (MIA PaCa-2 [12]): 22.12%; Activity (MIA PaCa-2 [13]): 27.53%; solubility [14]: > 64 µg/mL; Papp [15]: 123 ×10⁻⁶ cm/s; Papp [16]: < 1 ×10⁻⁶ cm/s; half-life [17]: > 0.5 h; half-life [18]: 2.44 h |
| O=C(Nc1ccccc1Cl)c1cc2cnc(Nc3ccc(N4CCNCC4)cn3)nc2n1C1CCCC1 | 4350 | 52.8 | 23 | 2170 | inhibition [1]: Active; inhibition [2]: Active |
| CN(C)C(=O)c1cc2cnc(Nc3ccc(Cl)cc3)nc2n1C1CCCC1 |  |  | 143 | 13000 |  |
| CCC(CO)Nc1ncc2cc(C(=O)N(C)C)n(C3CCCC3)c2n1 (stereo not drawn) |  |  | 523 | 31000 |  |
| CN(C)C(=O)c1cc2cnc(NC3CCCCC3)nc2n1C1CCCC1 |  |  | 379 | 25000 |  |
